Values joined by “and” are separate entries in the source; they are usually repeats but may differ in a detail not shown here. Identical values can stand only once.
These compounds were tested against full length human WEE1 kinase (Homo sapiens, UniProt P30291) (assay: ELISA based assay: WEE1 phosphorylation of biotinylated H2B peptide spanning Tyr37). Conditions: Table 1; several values in a cell are repeat determinations.
Type: biochemical
Design: A full length human WEE1 kinase that was enzymatically active was purified from insect cell; ELISA assay % Inhibition: concentration or dose not given beside the values
Text: Designing of a Novel inhibitor Screening Platform: […] A full length human WEE1 kinase that was enzymatically active was purified from insect cell. […] NCI diversity set compound library ( 1600 compounds) was used for the screening.

full length human WEE1 kinase, sequence (P30291 whole entry): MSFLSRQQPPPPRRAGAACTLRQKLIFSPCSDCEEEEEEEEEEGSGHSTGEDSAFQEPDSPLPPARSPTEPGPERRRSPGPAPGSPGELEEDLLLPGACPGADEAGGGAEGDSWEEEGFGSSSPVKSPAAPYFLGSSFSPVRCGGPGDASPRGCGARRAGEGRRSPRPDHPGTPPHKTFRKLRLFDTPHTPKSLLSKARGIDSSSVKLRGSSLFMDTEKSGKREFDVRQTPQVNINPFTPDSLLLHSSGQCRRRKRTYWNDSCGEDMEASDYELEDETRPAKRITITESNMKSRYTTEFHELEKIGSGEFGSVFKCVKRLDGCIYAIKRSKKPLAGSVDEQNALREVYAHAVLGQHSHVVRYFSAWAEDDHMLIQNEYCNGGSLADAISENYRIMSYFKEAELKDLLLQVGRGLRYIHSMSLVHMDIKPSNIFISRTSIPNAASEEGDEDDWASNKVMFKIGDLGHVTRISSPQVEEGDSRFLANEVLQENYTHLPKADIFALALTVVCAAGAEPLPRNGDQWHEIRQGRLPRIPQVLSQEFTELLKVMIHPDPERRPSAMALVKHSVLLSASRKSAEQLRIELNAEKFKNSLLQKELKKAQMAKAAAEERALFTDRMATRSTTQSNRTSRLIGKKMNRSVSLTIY

Compared with `CC(C)(C)OC(=O)Nc1ccc(NC(=O)[C@H]2CC[C@H](C(=O)Nc3ccc(NC(=O)OC(C)(C)C)cc3)CC2)cc1` [SG5-121], `CC(C)(C)OC(=O)Nc1ccc(NC(=O)c2cccc(C(=O)Nc3ccc(NC(=O)OC(C)(C)C)cc3)n2)cc1` [SG5-123] is lower in “ELISA Inhibition (%)” value: −7% for the first, −39% for the second.

Compared with `CC(C)(C)OC(=O)Nc1ccc(NC(=O)c2ccc(C(=O)Nc3ccc(NC(=O)OC(C)(C)C)c(F)c3)o2)cc1F` [SG5-140-2], `CC(C)(C)OC(=O)NCc1ccc(NC(=O)c2ccc(C(=O)Nc3ccc(CNC(=O)OC(C)(C)C)cc3)o2)cc1` [SG5-140-10] is lower in “ELISA Inhibition (%)” value: 25% for the first, 13% for the second.

First: CC(C)(C)OC(=O)Nc1ccc(NC(=O)c2ccc(C(=O)Nc3ccc(NC(=O)OC(C)(C)C)c(F)c3)cc2)cc1F [SG5-133-1]
Second: Cl.Nc1ccc(NC(=O)C2CCC(C(=O)Nc3ccc(N)c(Cl)c3)CC2)cc1Cl (stereo not drawn) [SG5-147-8]
The “ELISA Inhibition (%)” value of the first is lower: −57% for the first, 17% for the second.

Going from `Nc1ccc(NC(=O)c2ccc(C(=O)Nc3ccc(N)c(F)c3)cc2)cc1F` [SG5-137-1] to `CC(C)(C)OC(=O)Nc1ccc(NC(=O)c2ccc(C(=O)Nc3ccc(NC(=O)OC(C)(C)C)c(Cl)c3)cc2)cc1Cl` [SG5-133-2], the “ELISA Inhibition (%)” value falls from −24% to −38%.

First: Cc1cc(C(=O)Nc2ccc(CN)cc2)c(C)cc1C(=O)Nc1ccc(CN)cc1.Cl [SG5-147-9]
Second: Cc1cc(C(=O)Nc2ccc(N)c(Cl)c2)c(C)cc1C(=O)Nc1ccc(N)c(Cl)c1.Cl [SG5-147-5]
The “ELISA Inhibition (%)” value of the first is higher: 9% for the first, 2% for the second.

First: CC(C)(C)OC(=O)Nc1ccc(NC(=O)c2cccc(C(=O)Nc3ccc(NC(=O)OC(C)(C)C)cc3)c2)cc1 [SG5-099]
Second: CC(C)(C)OC(=O)Nc1ccc(NC(=O)C2CCC(C(=O)Nc3ccc(NC(=O)OC(C)(C)C)c(Cl)c3)CC2)cc1Cl (stereo not drawn) [SG5-140-8]
The “ELISA Inhibition (%)” value of the first is lower: −14% for the first, 25% for the second.

First: CC(C)(C)OC(=O)Nc1ccc(NC(=O)c2ccc(C(=O)Nc3ccc(NC(=O)OC(C)(C)C)cc3)nc2)cc1 [SG5-119, Di-tert-butyl (((pyridine-2,5-dicarbonyl)bis(azanediyl))bis(4,1-phenylene))dicarbamate]
Second: CC(C)(C)OC(=O)NCc1ccc(NC(=O)c2ccc(C(=O)Nc3ccc(CNC(=O)OC(C)(C)C)cc3)nc2)cc1 [SG5-140-11, Di-tert-butyl ((((pyridine-2,5-dicarbonyl)bis(azanediyl))bis(4,1-phenylene))bis(methylene))dicarbamate]
The “ELISA Inhibition (%)” value of the first is lower: −17% for the first, −6% for the second.

First: Cc1cc(C(=O)NCc2ccc(N)cc2)c(C)cc1C(=O)NCc1ccc(N)cc1.Cl [SG5-147-13]
Second: Cl.O=C(NC1CCNCC1)c1ccc(C(=O)NC2CCNCC2)o1 [SG5-147-18]
The “ELISA Inhibition (%)” value of the first is higher: 12% for the first, −5% for the second.

Going from `Cl.Nc1ccc(NC(=O)c2ccc(C(=O)Nc3ccc(N)c(F)c3)o2)cc1F` [SG5-147-2] to `Nc1ccc(NC(=O)c2cccc(C(=O)Nc3ccc(N)cc3)c2)cc1` [SG5-103], the “ELISA Inhibition (%)” value falls from 37% to 12%.

First: Cl.Nc1ccc(CNC(=O)c2ccc(C(=O)NCc3ccc(N)cc3)o2)cc1 [SG5-147-14]
Second: Cc1cc(C(=O)Nc2ccc(N)cc2)c(C)cc1C(=O)Nc1ccc(N)cc1 [SG5-110]
The “ELISA Inhibition (%)” value of the first is lower: −16% for the first, 14% for the second.

Compared with `Cc1cc(C(=O)NC2CCN(C(=O)OC(C)(C)C)CC2)c(C)cc1C(=O)NC1CCN(C(=O)OC(C)(C)C)CC1` [SG5-140-17], `Nc1ccc(NC(=O)[C@H]2CC[C@H](C(=O)Nc3ccc(N)cc3)CC2)cc1` [SG5-126] is lower in “ELISA Inhibition (%)” value: 10% for the first, −39% for the second.

Going from `CC(C)(C)OC(=O)Nc1ccc(NC(=O)c2ccc(C(=O)Nc3ccc(NC(=O)OC(C)(C)C)c(F)c3)nc2)cc1F` [SG5-140-3, Di-tert-butyl (((pyridine-2,5-dicarbonyl)bis(azanediyl))bis(2-fluoro-4,1-phenylene))dicarbamate] to `Cl.Nc1ccc(NC(=O)C2CCC(C(=O)Nc3ccc(N)c(F)c3)CC2)cc1F` (stereo not drawn) [SG5-147-4], the “ELISA Inhibition (%)” value falls from 22% to 20%.

First: Nc1ccc(NC(=O)c2cccc(C(=O)Nc3ccc(N)cc3)n2)cc1 [SG5-128]
Second: CC(C)(C)OC(=O)Nc1ccc(CNC(=O)c2ccc(C(=O)NCc3ccc(NC(=O)OC(C)(C)C)cc3)o2)cc1 [SG5-140-14]
The “ELISA Inhibition (%)” value of the first is higher: 2% for the first, −4% for the second.

Going from “(2,5-Bis((4-(aminomethyl)phenyl)carbamoyl)pyridin-1-ium-1-yl)hydridochlorate(I) dihydrochloride [SG5-147-11]” to `Cl.Nc1ccc(CNC(=O)C2CCC(C(=O)NCc3ccc(N)cc3)CC2)cc1` (stereo not drawn) [SG5-147-16], the “ELISA Inhibition (%)” value falls from 68% to −14%.

First: Cl.NCc1ccc(NC(=O)C2CCC(C(=O)Nc3ccc(CN)cc3)CC2)cc1 (stereo not drawn) [SG5-147-12]
Second: Cc1cc(C(=O)Nc2ccc(NC(=O)OC(C)(C)C)c(Cl)c2)c(C)cc1C(=O)Nc1ccc(NC(=O)OC(C)(C)C)c(Cl)c1 [SG5-140-5]
The “ELISA Inhibition (%)” value of the first is lower: −9% for the first, 24% for the second.

Going from `Cl.O=C(NC1CCNCC1)C1CCC(C(=O)NC2CCNCC2)CC1` (stereo not drawn) [SG5-147-20] to `CC(C)(C)OC(=O)Nc1ccc(NC(=O)c2ccc(C(=O)Nc3ccc(NC(=O)OC(C)(C)C)c(Cl)c3)o2)cc1Cl` [SG5-140-6], the “ELISA Inhibition (%)” value falls from 22% to 17%.

Compared with `CC(C)(C)OC(=O)Nc1ccc(NC(=O)c2ccc(C(=O)Nc3ccc(NC(=O)OC(C)(C)C)cc3)o2)cc1` [SG5-107, Di-tert-butyl (((furan-2,5-dicarbonyl)bis(azanediyl))bis(4,1-phenylene))dicarbamate], `Cl.NCc1ccc(NC(=O)c2ccc(C(=O)Nc3ccc(CN)cc3)o2)cc1` [SG5-147-10] is higher in “ELISA Inhibition (%)” value: −8% for the first, 4% for the second.

Compared with `Cc1cc(C(=O)Nc2ccc(N)c(F)c2)c(C)cc1C(=O)Nc1ccc(N)c(F)c1.Cl` [SG5-147-1], `Cc1cc(C(=O)NCc2ccc(NC(=O)OC(C)(C)C)cc2)c(C)cc1C(=O)NCc1ccc(NC(=O)OC(C)(C)C)cc1` [SG5-140-13] is lower in “ELISA Inhibition (%)” value: 41% for the first, −4% for the second.

First: CC(C)(C)OC(=O)N1CCC(NC(=O)c2ccc(C(=O)NC3CCN(C(=O)OC(C)(C)C)CC3)o2)CC1 [SG5-140-18]
Second: Cc1cc(C(=O)Nc2ccc(NC(=O)OC(C)(C)C)c(F)c2)c(C)cc1C(=O)Nc1ccc(NC(=O)OC(C)(C)C)c(F)c1 [SG5-140-1]
The “ELISA Inhibition (%)” value of the first is lower: −27% for the first, 25% for the second.

Going from `CC(C)(C)OC(=O)Nc1ccc(NC(=O)[C@H]2CC[C@H](C(=O)Nc3ccc(NC(=O)OC(C)(C)C)c(F)c3)CC2)cc1F` [SG5-140-4] to `Cc1cc(C(=O)NC2CCNCC2)c(C)cc1C(=O)NC1CCNCC1.Cl` [SG5-147-17], the “ELISA Inhibition (%)” value rises from 20% to 21%.

Compared with `CC(C)(C)OC(=O)Nc1ccc(NC(=O)c2ccc(C(=O)Nc3ccc(NC(=O)OC(C)(C)C)c(Cl)c3)nc2)cc1Cl` [SG5-140-7], `Cl.Nc1ccc(NC(=O)c2ccc(C(=O)Nc3ccc(N)c(Cl)c3)o2)cc1Cl` [SG5-147-6] is higher in “ELISA Inhibition (%)” value: 12% for the first, 13% for the second.

First: Cc1cc(C(=O)Nc2ccc(CNC(=O)OC(C)(C)C)cc2)c(C)cc1C(=O)Nc1ccc(CNC(=O)OC(C)(C)C)cc1 [SG5-140-9]
Second: CC(C)(C)OC(=O)NCc1ccc(NC(=O)C2CCC(C(=O)Nc3ccc(CNC(=O)OC(C)(C)C)cc3)CC2)cc1 (stereo not drawn) [SG5-140-12]
The “ELISA Inhibition (%)” value of the first is higher: 18% for the first, 4% for the second.

`CC(C)(C)OC(=O)N1CCC(NC(=O)C2CCC(C(=O)NC3CCN(C(=O)OC(C)(C)C)CC3)CC2)CC1` (stereo not drawn) [SG5-140-20] and `CC(C)(C)OC(=O)N1CCC(NC(=O)c2ccc(C(=O)NC3CCN(C(=O)OC(C)(C)C)CC3)nc2)CC1` [SG5-140-19] are the same in “ELISA Inhibition (%)” value: 28% for the first, 28% for the second.

Going from `Cc1cc(C(=O)Nc2ccc(NC(=O)OC(C)(C)C)cc2)c(C)cc1C(=O)Nc1ccc(NC(=O)OC(C)(C)C)cc1` [SG5-106] to `Cl.Cl.Cl.Nc1ccc(NC(=O)c2ccc(C(=O)Nc3ccc(N)c(F)c3)nc2)cc1F` [SG5-147-3, (2,5-Bis((4-amino-3-fluorophenyl)carbamoyl)pyridin-1-ium-1-yl)hydridochlorate(I) dihydrochloride], the “ELISA Inhibition (%)” value rises from −23% to 50%.

Compared with `Cl.Nc1ccc(NC(=O)c2ccc(C(=O)Nc3ccc(N)c(Cl)c3)cc2)cc1Cl` [SG5-137-2], `CC(C)(C)OC(=O)Nc1ccc(CNC(=O)C2CCC(C(=O)NCc3ccc(NC(=O)OC(C)(C)C)cc3)CC2)cc1` (stereo not drawn) [SG5-140-16] is higher in “ELISA Inhibition (%)” value: −52% for the first, 8% for the second.

In the case of `CC(C)(C)OC(=O)Nc1ccc(CNC(=O)c2ccc(C(=O)NCc3ccc(NC(=O)OC(C)(C)C)cc3)nc2)cc1` [SG5-140-15], the “ELISA Inhibition (%)” value is reported as 12%.

In the case of `Nc1ccc(NC(=O)c2ccc(C(=O)Nc3ccc(N)cc3)nc2)cc1` [SG5-124, N^2,N^5-bis(4-aminophenyl)pyridine-2,5-dicarboxamide], the “ELISA Inhibition (%)” value is reported as 73% and 103%.

Same assay, conditions: Table 1; several values in a cell are repeat determinations; dihydrochloride

`Cl.Nc1ccc(CNC(=O)c2ccc(C(=O)NCc3ccc(N)cc3)cc2)cc1` [SG5-137-3, N^1,N^4-bis(4-aminobenzyl)terephthalamide dihydrochloride] was tested, and the “ELISA Inhibition (%)” value was 32% and 60%.

Same assay, conditions: Table 3; No peptide = 100, No inhibitor = 0

For `Nc1ccc(NC(=O)c2ccc(C(=O)Nc3ccc(N)cc3)nc2)cc1` [SG5-124, N^2,N^5-bis(4-aminophenyl)pyridine-2,5-dicarboxamide], the “ELISA assay % Inhibition” value was 98%.

From patent US11987568B2, “Allosteric inhibitor of WEE1 kinase” (H. LEE MOFFITT CANCER CENTER AND RESEARCH INSTITUTE, INC., priority 2018, dated 2024)
